Experimental data published in paper PMC7316778 (Nature Communications, 2020).
Values joined by “and” are separate entries in the source; they are usually repeats but may differ in a detail not shown here. Equal entries are not always repeated. Where two headings read alike, the source gives them in different places.

Tests used:
Test in all cases: SelectScreen kinase assay
MAP2K4 (MEK4) = target: T1, MAP2K4 (MEK4) (Homo sapiens, UniProt P45985)
T1 sequence (P45985 1-399): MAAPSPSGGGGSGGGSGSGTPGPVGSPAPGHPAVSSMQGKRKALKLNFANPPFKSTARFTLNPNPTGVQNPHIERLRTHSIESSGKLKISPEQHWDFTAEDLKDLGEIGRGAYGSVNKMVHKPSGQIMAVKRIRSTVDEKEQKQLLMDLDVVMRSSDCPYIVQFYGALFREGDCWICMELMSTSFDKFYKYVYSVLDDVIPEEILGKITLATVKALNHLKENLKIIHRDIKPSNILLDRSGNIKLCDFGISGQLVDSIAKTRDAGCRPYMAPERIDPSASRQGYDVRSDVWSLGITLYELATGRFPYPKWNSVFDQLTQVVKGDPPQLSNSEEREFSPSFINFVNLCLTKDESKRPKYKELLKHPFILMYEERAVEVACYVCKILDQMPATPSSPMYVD
Protocol: (§1) Selectivity profiling assays were performed by the Invitrogen SelectScreen™ Services. […] The concentration of ATP was selected to be equal to the KM, unless indicated otherwise.

PRKCA (PKC alpha) = PRKCA (PKC alpha) (Homo sapiens, UniProt P17252)
Protocol: as §1

PRKCB2 (PKC beta II) = PRKCB2 (PKC beta II) (Homo sapiens, UniProt P05771); details: 1 h, 1 μM WEL028, 1 h preincubation
Protocol: as §1

CSNK1G1 (CK1 gamma 1) = CSNK1G1 (CK1 gamma 1) (Homo sapiens, UniProt Q9HCP0); details: for Inhibition at 1 µM (%): CSNK1G1 (CK1 gamma 1), ZLYTE, ATP Km app
Protocol: as §1

PRKD1 (PKC mu) = target: T2, PRKD1 (PKC mu) (Homo sapiens, UniProt Q15139)
T2 sequence (Q15139 1-912): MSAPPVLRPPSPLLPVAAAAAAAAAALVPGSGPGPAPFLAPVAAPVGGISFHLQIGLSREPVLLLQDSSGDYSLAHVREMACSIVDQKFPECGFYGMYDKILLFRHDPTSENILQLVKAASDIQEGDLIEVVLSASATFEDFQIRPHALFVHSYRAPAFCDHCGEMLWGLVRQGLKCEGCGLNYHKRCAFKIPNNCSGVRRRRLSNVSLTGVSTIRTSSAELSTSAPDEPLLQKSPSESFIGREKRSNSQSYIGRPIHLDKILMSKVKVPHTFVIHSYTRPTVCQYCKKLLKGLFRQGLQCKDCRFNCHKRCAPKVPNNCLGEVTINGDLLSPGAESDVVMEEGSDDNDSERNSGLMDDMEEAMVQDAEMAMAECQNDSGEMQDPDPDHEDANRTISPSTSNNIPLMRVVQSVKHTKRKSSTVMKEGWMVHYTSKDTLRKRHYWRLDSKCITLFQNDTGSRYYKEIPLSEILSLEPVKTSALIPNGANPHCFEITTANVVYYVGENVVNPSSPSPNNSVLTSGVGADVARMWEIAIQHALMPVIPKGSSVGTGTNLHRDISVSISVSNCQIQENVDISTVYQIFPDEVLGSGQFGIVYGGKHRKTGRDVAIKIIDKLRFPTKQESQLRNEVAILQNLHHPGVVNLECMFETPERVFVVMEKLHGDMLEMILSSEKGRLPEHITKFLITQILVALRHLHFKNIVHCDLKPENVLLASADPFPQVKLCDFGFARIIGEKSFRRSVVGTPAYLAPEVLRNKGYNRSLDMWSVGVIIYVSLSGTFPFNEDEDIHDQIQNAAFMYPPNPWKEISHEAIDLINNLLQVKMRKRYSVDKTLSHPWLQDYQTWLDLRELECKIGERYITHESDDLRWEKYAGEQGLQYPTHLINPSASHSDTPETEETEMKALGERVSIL
Protocol: as §1

CLK1 = CLK1 (Homo sapiens, UniProt P49759)
Protocol: as §1

PRKG1 = PRKG1 (Homo sapiens, UniProt Q13976)
Protocol: as §1

MAP3K11 (MLK3) = MAP3K11 (MLK3) (Homo sapiens, UniProt Q16584)
Protocol: as §1

MAPK1 (ERK2) = MAPK1 (ERK2) (Homo sapiens, UniProt P28482)
Protocol: as §1

STK32C (YANK3) = STK32C (YANK3) (Homo sapiens, UniProt Q86UX6)
Protocol: as §1

PRKCB1 (PKC beta I) = PRKCB1 (PKC beta I) (Homo sapiens, UniProt P05771)
Protocol: as §1

MERTK (cMER) = MERTK (cMER) (Homo sapiens, UniProt Q12866)
Protocol: as §1

EPHA4 = EPHA4 (Homo sapiens, UniProt P54764)
Protocol: as §1

FRK (PTK5) = FRK (PTK5) (Homo sapiens, UniProt P42685); details: for Inhibition at 1 µM (%): FRK (PTK5), ZLYTE, ATP Km app
Protocol: as §1

MST1R (RON) = MST1R (RON) (Homo sapiens, UniProt Q04912)
Protocol: as §1

MAP3K10 (MLK2) = MAP3K10 (MLK2) (Homo sapiens, UniProt Q02779)
Protocol: as §1

HCK = HCK (Homo sapiens, UniProt P08631)
Protocol: as §1

[1] = 1 h, 1 μM WEL028, 1 h preincubation
[2] = 1 µM, ZLYTE, ATP Km app, listed as WEL028, 1 µM
[3] = read-out: Inhibition at 1 µM (%)

Chain of PRKG1 (Q13976 whole entry): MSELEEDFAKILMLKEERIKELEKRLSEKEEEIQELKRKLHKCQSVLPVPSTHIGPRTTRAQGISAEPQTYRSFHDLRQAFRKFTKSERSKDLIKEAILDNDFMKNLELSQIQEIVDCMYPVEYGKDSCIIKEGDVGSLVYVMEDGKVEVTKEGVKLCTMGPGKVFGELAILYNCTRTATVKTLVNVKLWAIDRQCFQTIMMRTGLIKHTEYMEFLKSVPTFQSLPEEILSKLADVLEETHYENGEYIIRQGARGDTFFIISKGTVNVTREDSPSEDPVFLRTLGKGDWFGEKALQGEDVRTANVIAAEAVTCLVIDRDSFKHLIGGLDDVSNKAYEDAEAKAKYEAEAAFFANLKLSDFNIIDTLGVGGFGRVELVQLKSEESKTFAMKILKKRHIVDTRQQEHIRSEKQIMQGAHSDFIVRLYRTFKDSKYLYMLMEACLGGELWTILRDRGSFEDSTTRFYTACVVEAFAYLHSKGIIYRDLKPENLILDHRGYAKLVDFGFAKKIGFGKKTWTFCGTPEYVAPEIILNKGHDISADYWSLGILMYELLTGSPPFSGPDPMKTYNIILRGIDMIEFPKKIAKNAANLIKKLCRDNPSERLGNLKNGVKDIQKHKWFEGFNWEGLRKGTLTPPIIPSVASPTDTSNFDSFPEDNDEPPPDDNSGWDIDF
Chain of CSNK1G1 (CK1 gamma 1) (Q9HCP0 whole entry): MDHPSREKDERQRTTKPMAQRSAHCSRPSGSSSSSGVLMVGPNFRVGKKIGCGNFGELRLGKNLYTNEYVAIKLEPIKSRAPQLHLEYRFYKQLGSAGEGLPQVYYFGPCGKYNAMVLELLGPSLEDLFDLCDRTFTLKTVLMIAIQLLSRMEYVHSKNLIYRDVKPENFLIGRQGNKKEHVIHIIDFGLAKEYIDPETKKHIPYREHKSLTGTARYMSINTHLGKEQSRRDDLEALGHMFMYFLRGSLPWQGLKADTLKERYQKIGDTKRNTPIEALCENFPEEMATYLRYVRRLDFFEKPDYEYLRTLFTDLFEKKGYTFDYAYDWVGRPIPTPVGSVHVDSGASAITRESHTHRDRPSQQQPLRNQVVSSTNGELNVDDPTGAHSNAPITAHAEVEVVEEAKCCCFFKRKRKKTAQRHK
Chain of MAP3K10 (MLK2) (Q02779 whole entry): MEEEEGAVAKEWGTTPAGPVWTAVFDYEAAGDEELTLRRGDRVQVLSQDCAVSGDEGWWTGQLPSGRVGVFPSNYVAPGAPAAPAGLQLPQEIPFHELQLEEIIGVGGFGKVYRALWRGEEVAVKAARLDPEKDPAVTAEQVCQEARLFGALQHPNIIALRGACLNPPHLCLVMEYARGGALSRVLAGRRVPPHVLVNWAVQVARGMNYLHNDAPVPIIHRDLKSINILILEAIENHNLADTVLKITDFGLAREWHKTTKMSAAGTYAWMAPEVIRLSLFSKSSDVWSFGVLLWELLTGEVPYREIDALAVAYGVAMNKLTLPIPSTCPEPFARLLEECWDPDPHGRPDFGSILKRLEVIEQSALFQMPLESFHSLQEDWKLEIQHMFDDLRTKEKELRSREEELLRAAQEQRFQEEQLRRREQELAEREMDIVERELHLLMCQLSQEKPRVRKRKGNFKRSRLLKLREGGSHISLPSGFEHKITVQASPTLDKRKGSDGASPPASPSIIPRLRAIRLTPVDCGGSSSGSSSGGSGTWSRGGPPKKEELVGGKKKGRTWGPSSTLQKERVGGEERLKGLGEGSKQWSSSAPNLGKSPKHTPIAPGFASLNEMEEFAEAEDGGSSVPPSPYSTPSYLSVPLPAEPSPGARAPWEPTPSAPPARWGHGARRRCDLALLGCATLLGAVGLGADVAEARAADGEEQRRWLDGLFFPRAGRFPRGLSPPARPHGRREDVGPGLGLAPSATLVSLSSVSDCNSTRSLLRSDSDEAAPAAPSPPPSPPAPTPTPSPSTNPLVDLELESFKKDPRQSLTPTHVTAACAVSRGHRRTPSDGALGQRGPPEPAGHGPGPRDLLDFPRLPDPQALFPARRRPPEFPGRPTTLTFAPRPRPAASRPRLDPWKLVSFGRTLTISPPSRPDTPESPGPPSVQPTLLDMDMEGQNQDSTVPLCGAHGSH
Chain of MST1R (RON) (Q04912 25-1400): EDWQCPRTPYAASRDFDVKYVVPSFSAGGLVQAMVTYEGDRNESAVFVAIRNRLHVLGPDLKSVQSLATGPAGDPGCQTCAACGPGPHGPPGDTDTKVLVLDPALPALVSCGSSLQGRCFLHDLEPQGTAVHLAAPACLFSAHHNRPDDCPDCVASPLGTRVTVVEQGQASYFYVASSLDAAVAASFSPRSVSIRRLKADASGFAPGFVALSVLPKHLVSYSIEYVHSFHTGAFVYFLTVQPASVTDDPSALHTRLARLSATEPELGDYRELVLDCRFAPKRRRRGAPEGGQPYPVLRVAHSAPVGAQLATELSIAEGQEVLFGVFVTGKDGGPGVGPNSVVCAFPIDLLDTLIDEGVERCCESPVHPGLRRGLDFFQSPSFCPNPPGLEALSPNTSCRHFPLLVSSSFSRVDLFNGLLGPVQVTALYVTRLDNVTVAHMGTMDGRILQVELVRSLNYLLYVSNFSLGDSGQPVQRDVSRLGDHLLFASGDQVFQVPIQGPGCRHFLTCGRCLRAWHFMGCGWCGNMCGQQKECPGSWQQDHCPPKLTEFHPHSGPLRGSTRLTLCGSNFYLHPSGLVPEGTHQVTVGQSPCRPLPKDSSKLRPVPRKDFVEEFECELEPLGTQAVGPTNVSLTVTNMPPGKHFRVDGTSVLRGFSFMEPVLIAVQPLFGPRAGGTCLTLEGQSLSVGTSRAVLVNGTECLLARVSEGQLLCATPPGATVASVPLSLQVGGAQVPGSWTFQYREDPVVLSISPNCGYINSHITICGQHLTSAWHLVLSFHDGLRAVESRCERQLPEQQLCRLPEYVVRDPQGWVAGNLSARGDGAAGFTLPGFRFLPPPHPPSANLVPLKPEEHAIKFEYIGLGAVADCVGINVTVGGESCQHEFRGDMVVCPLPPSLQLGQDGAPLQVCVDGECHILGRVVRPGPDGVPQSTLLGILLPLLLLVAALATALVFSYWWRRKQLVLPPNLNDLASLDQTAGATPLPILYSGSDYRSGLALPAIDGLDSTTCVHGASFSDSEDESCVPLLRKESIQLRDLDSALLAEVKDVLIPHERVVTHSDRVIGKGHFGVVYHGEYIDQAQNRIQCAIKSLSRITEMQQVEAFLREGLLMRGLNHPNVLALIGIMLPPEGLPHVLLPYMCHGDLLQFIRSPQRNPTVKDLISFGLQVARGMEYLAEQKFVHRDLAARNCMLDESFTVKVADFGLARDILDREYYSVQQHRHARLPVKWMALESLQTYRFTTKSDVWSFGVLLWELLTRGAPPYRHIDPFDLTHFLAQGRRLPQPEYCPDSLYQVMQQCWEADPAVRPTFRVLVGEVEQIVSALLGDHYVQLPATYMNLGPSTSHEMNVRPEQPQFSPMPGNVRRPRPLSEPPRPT
Chain of CLK1 (P49759 whole entry): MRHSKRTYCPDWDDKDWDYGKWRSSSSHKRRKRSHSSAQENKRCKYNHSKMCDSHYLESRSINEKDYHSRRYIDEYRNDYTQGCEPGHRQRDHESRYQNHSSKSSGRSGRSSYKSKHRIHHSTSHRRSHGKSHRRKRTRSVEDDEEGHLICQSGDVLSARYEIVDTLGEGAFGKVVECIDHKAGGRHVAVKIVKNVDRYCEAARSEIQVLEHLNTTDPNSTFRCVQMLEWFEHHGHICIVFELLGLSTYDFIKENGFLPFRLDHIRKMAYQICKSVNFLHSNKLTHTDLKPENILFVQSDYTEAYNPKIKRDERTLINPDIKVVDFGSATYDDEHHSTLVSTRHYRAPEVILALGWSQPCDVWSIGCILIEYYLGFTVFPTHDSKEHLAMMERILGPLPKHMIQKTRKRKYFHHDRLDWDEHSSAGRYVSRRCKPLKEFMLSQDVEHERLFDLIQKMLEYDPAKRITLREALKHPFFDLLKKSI
Chain of EPHA4 (P54764 20-986): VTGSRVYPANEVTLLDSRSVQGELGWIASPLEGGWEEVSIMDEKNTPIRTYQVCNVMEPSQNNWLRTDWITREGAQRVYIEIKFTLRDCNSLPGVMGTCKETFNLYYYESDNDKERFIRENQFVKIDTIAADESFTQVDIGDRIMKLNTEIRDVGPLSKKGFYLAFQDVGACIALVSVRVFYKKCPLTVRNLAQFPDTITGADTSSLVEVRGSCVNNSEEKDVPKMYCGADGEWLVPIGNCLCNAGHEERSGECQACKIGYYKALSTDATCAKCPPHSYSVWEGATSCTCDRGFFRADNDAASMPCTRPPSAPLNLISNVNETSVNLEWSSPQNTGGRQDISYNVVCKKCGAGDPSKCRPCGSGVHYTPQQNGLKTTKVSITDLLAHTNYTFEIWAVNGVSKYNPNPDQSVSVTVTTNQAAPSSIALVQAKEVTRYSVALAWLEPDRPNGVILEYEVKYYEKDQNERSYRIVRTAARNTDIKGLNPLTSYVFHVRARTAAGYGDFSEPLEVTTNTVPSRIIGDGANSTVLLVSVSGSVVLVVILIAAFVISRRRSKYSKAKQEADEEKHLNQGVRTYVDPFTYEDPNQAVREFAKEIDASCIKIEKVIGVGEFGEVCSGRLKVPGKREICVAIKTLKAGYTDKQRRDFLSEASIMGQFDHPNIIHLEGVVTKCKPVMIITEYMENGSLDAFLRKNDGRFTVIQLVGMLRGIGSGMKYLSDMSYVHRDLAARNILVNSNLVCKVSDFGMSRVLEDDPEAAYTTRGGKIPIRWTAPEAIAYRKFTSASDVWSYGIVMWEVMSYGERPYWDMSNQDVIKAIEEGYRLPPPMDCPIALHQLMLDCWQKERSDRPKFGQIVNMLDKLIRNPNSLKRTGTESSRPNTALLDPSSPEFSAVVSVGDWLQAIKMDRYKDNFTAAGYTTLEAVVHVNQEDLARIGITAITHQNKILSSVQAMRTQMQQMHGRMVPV

C#CCOc1ccc(Nc2ncc(Cl)c(Nc3ccccc3NC(=O)C=C)n2)c(OC)c1 [Compound 6]
IC50 (MAP2K4 (MEK4)): 3.98 nM
inhibition at 1 µM (MAP2K4 (MEK4); [1]): 104%
Apparent fold selectivity (MAP2K4 (MEK4); IC50 on that kinase divided by IC50 on FES^S700C): 1 fold
inhibition at 1 µM (MAP2K4 (MEK4); read-out: Inhibition at 1 µM (%), MAP2K4 (MEK4), 1 µM, LanthaScreen Binding): 103%
inhibition at 1 µM (PRKCA (PKC alpha); [1]): 14%
Inhibition at 1 µM (%) (PRKCA (PKC alpha); PRKCA (PKC alpha), 1 µM, ZLYTE, ATP Km app, listed as WEL028, 1 µM): 10%
inhibition at 1 µM (PRKCA (PKC alpha); read-out: Inhibition at 1 µM (%), PRKCA (PKC alpha), 1 µM, ZLYTE, ATP Km app): 19%
inhibition at 1 µM (PRKCB2 (PKC beta II)): 0%
Inhibition (%) (CSNK1G1 (CK1 gamma 1); 1 μM WEL028, 1 h preincubation): 4%
Inhibition at 1 µM (%) (CSNK1G1 (CK1 gamma 1)): 2%
Inhibition at 1 µM (%) (CSNK1G1 (CK1 gamma 1); listed as WEL028, 1 µM): 7%
Inhibition at 1 µM (%) (PRKD1 (PKC mu); [2]): 9%
inhibition at 1 µM (PRKD1 (PKC mu); [1]): 11%
inhibition at 1 µM (PRKD1 (PKC mu); read-out: Inhibition at 1 µM (%), 1 µM, ZLYTE, ATP Km app): 12%
inhibition at 1 µM (CLK1; [1]): 5%
Inhibition at 1 µM (%) (CLK1; CLK1, 1 µM, ZLYTE, ATP Km app, listed as WEL028, 1 µM): 1% and 8%
Inhibition at 1 µM (%) (PRKG1; [2]): -6% and 0%
inhibition at 1 µM (PRKG1; [1]): -3%
Inhibition at 1 µM (%) (MAP3K11 (MLK3); MAP3K11 (MLK3), LanthaScreen Binding, listed as WEL028, 1 µM): 6%
inhibition at 1 µM (MAP3K11 (MLK3); read-out: Inhibition at 1 µM (%), MAP3K11 (MLK3), LanthaScreen Binding): 7%
inhibition at 1 µM (MAPK1 (ERK2); 1 h): 26%
inhibition at 1 µM (MAPK1 (ERK2); [3]): 26%
inhibition at 1 µM (STK32C (YANK3); 1 h): 3%
inhibition at 1 µM (STK32C (YANK3); [3]): 3%
inhibition at 1 µM (PRKCB1 (PKC beta I); [1]): 16%
Inhibition at 1 µM (%) (PRKCB1 (PKC beta I); PRKCB1 (PKC beta I), 1 µM, ZLYTE, ATP Km app): 25%
inhibition at 1 µM (MERTK (cMER); [1]): 4%
Inhibition at 1 µM (%) (MERTK (cMER); MERTK (cMER), 1 µM, ZLYTE, ATP Km app, listed as WEL028, 1 µM): 0% and 9%
inhibition at 1 µM (EPHA4; [1]): 5%
Inhibition at 1 µM (%) (EPHA4; EPHA4, 1 µM, ZLYTE, ATP Km app, listed as WEL028, 1 µM): 4%
inhibition at 1 µM (EPHA4; read-out: Inhibition at 1 µM (%), EPHA4, 1 µM, ZLYTE, ATP Km app): 5%
inhibition at 1 µM (FRK (PTK5); [1]): 7%
Inhibition at 1 µM (%) (FRK (PTK5)): 11%
Inhibition at 1 µM (%) (FRK (PTK5); listed as WEL028, 1 µM): 4%
inhibition at 1 µM (MST1R (RON); [1]): 5%
Inhibition at 1 µM (%) (MST1R (RON); MST1R (RON), 1 µM, ZLYTE, ATP Km app, listed as WEL028, 1 µM): 10% and 0%
inhibition at 1 µM (MAP3K10 (MLK2); [1]): 4%
Inhibition at 1 µM (%) (MAP3K10 (MLK2); MAP3K10 (MLK2), 1 µM, LanthaScreen Binding, listed as WEL028, 1 µM): 5%
inhibition at 1 µM (MAP3K10 (MLK2); read-out: Inhibition at 1 µM (%), MAP3K10 (MLK2), 1 µM, LanthaScreen Binding): 4%
inhibition at 1 µM (HCK; [1]): 6%
Inhibition at 1 µM (%) (HCK; HCK, 1 µM, ZLYTE, ATP Km app, listed as WEL028, 1 µM): 7%
inhibition at 1 µM (HCK; read-out: Inhibition at 1 µM (%), HCK, 1 µM, ZLYTE, ATP Km app): 4%
